Measured values as given in US20110046142A1, “ANTIBIOTIC COMPOUNDS” (priority 2007, published 2011).
Converted amounts (≈) assume the structure as drawn. Read-outs that look alike come from different tables or passages of the source.

Legend:
Format in all cases: cell-based
[1] = system: P. aeruginosa; experiment: Killing of logarithmic, stationary and biofilm cultures, colony count
Protocol: Persister cells in planktonic and biofilm populations are characterized for their antibiotic sensitivity in this example. Several bactericidal antimicrobials were chosen to test the resistance of P. aeruginosa to killing—ofloxacin, a fluoroquinolone; tobramycin, an aminoglycoside; carbenicillin, a β-lactam; and peracetic acid, a disinfectant oxidant (Spoering et al. (2001) J. Bacteriol. 183:6746-6751). Biofilms were grown essentially by the method of Ceri (Ceri et al. (1999) J. Clin. Microbiol. 37:1771-1776) and as described in Brooun et al. (2000) Antimicrob. Agents Chemother. 44:640-646. The device used for biofilm formation is a platform carrying 96 polystyrene pegs that fit in a microtiter plate. Preformed biofilms were incubated in the presence of an antimicrobial agent, and survival was measured after disrupting the biofilms by colony count.
Logarithmic state, stationary and biofilm cultures were challenged with carbenicillin. Carbenicillin is a bactericidal antibiotic that, similarly to most β-lactams, only kills rapidly growing cells (Tuomanen et al. (1986) Scand. J. Gastroenterol. Suppl:10-14). […] The amount of killing of logarithmic cells approached a plateau at concentrations above 1.67×MIC, indicating the presence of a persister subpopulation. These 0.1% cells in the rapidly growing logarithmic culture were invulnerable to killing by carbenicillin at 600 μg/ml.
Unlike carbenicillin, ofloxacin can kill non-growing cells (Brooun et al. (2000) Antimicrob. Agents Chemother. 44:640-646). Logarithmic, stationary and biofilm cultures were challenged with ofloxacin over a wide range of concentrations, from 1×MIC (0.5 μg/ml) to 30×MIC (15 μg/ml). After a 6 hrs incubation time with the antibiotic, viability was determined by colony count. The majority of cells in the three populations examined were killed at low concentrations of ofloxacin (FIG. 3B). The killing in all three cultures was distinctly biphasic, indicating the presence of persister cells. The levels of persisters were dramatically higher in the dense stationary planktonic and biofilm cultures as compared to logarithmic cells. […] At 5 μg/ml ofloxacin, which is the clinically achievable concentration (Schulz et al. (1997) Pharmazie 52:895-911), the percentage of live cells was 0.001% in the logarithmic population, 0.1% in the biofilm and 2.5% in the stationary culture (FIG. 3B).
Tobramycin at 50 μg/ml (the maximal clinically achievable concentration is 10 μg/ml), (Schulz et al. (1997) Pharmazie 52:895-911) eliminated 90% of the biofilm cells, and the remaining population declined gradually with increasing amounts of the antibiotic. At high concentrations surviving persisters became apparent. Tobramycin was ineffective against stationary planktonic cells, apparently due to the dependence of killing of growth.
Peracetic acid, an oxidizing disinfectant, was used in order to test the ability of a sterilizing agent to act against persisters. […] Similar results showing biphasic killing, and high level of persisters in stationary and biofilm populations, also were obtained with S. aureus and E. coli (Keren et al. (2004) FEMS Microbiol. Lett. 230:13-18).

[2] = system: E. coli K12 Δactivating enzyme; experiment: MIC, standard broth microdilution assay, deletion strains
Protocol: (§1) The ASKA strains of interest are validated for functional expression of the enzyme. If the protein is not expressed from a given expression vector the ORF is recloned. A strain overexpressing the activating enzyme from the ASKA library is then tested with the hit compound. If the hit has greater activity against this overexpressing strain as compared to the wild type, this indicates a prodrug. The test is performed in a standard broth microdilution assay for MIC determination. Hits with the lowest wild type MIC are then examined.
(§2) Cells were tested in a standard broth microdilution assay, inoculating 10^5 cells per well of a microtiter plate in LB broth. Overexpression and deletion strains were compared to the appropriate isogenic wild type. IPTG was added at 1 mM to growth medium. Experiments involving nfnB and nfsA strains were performed under anaerobic conditions.

[3] = system: E. coli K12 ΔtolC overexpressing activating enzyme; experiment: MIC, standard broth microdilution assay, tolC deletion (MDR efflux)
Text: Prodrugs are activated by activating enzymes into reactive molecules that bind to their targets, creating an irreversible sink. This may lead to insensitivity of the overall process to MDR efflux. In order to test this possibility, an E. coli K12 with a deletion in tolC coding for the outer membrane porin that is a component of the transenvelope MDRs was utilized (Li (2004) Drugs 64:159-204). This strain is highly sensitive to antibiotics (Tegos et al. (2002) Antimicrob. Agents Chemother. 46:3133-3141). […] The substrate specificity of AcrAB is remarkably broad, and includes essentially all small molecular weight amphipathic compounds. The AcrAB substrates include anions (SDS, fatty acids, bile acids), neutral compounds (macrolides, chloramphenicol, tetracyclines) and cations or compounds that can form cations (acridine, quaternary compound antiseptics, fluoroquinolones). AcrAB can extrude a natural broad spectrum antibiotics that evolved for good penetration, chloramphenicol and tetracycline; and also extrude synthetic broad-spectrums, the fluoroquinolones.
as §2

[4] = system: E. coli K12 wt; experiment: MIC, standard broth microdilution assay; settings: LB broth, 10^5 cells per well, 1 mM IPTG
Protocol: as §1, §2

[5] = system: E. coli K12 overexpressing activating enzyme; experiment: MIC, standard broth microdilution assay, overexpression strains
Protocol: as §1, §2

[6] = system: E. coli K12 knockout pool (BacPool) and wild type; experiment: Prodrug screen, growth/no growth of BacPool knockout mix versus wild type; settings: compounds at about 46-50 μg/ml, OD600 after overnight incubation
Text: A complete, ordered E. coli K12 knockout library of 4320 genes and predicted ORFs (the Keio library) was used (Baba et al. (2006). Mol. Systems Biol. 2:2006.0008). The knockouts were constructed using the Wanner method with a kanamycin cassette replacing the ORFs (Datsenko et al. (2000) Proc. Natl. Acad. Sci. USA 97:6640-6645). All strains of this library were combined in a mix BacPool1) for screening. This permitted screening of the library against all strains simultaneously, instead of screening a full industry-size library against each of the individual E. coli 4×10^3 knockout strains.
The library mix was prepared by first culturing all strains overnight in LB medium, and then adding equal aliquots into a tube. This material was then mixed, dispensed in vials and stored at −80° C. For the screen, one vial was thawed, diluted to 10^5 cells/ml in LB, and dispensed into 384 well microtiter plates. The compounds were added from DMSO stocks at a final concentration of 46 μg/ml. The same compounds were added to plates containing the wild type isogenic control. Screening was performed at the Harvard NSRB/NERCE screening facility that host a collection of 150,000 compounds (see Tables 1A and 1B). All screens at NSRB/NERCE were performed in duplicate, which strongly decreases the rate of false positives and negatives. For each tested molecule there are three possible scenarios when scoring for growth/no growth:
Growth in both the BacPool and K12 wells: indicates lack of antimicrobial activity;
Growth inhibition in both the BacPool and K12 wells: a possible antibiotic (direct activity) or generally toxic compound is present, but is not a prodrug; or
Growth of a BacPool well and no growth of the K12 well: a prodrug hit.
After an overnight incubation of plates at 37° C., the plates were read at OD600. Compounds that had no effect on the growth of the mix and inhibited the growth of the wild type were recorded as hits. The wells with growth indicated a prodrug hit that is not converted into a drug by a particular deletion mutant in the mix. The mutant strain is then identified in a secondary screen (see Example 2).
Yet another screen was performed on 147,500 compounds, using the protocol described below. […]
An E. coli KanR culture was grown in LB broth containing 50 μg/ml Kanamycin for 20 hrs at 37° C. in a shaking incubator. […] The plates were then incubated for 20 hrs at 37° C., and then the plates were read for Optical Density at 600 nm and were scored for growth/no growth. […]
Hits were identified by calculating the % of inhibition of growth of E. coli measured by OD600. The data were analyzed as follows: negative controls (N), positive controls (P), and compounds (X) ODs were separately averaged and the resulting means were used to calculate % of inhibition of E. coli growth: […]

[7] = system: wild type (WT) E. coli; experiment: MIC, validation of screen hits
Protocol: (§3) To validate the screening, the activity of nitazole against strains with nitrate reductases deleted and in strains overexpressing nitrate reductases were tested. A prodrug activated by a nitrate reductase has lower activity against a strain lacking the enzyme, and a higher activity in an overexpression strain, as compared to a wild type. E. coli has two known […], NfnB and NfsA. Strains tested were wild type (WT) E. coli, two knockout strains lacking the 2 nitroreductases (NfnB−; NfsA−), and against two strains overexpressing the same enzymes (NfnB+ and NfsA+). MIC values for nitazole are shown below.

[8] = system: E. coli strains overexpressing NfnB+ and NfsA+; experiment: MIC, validation of screen hits, overexpression strains
Protocol: as §3

[9] = system: E. coli knockout strains lacking the 2 nitroreductases (NfnB−; NfsA−); experiment: MIC, validation of screen hits, knockout strains
Protocol: as §3

[10] = Escherichia coli, K12WT, read-out: MIC
[11] = nfnB^− deletion strain, anaerobic conditions
[12] = nfsA^− deletion strain, anaerobic conditions
[13] = ΔtolC, nfnB^+ overexpressing strain
[14] = ΔtolC, nfsA^+ overexpressing strain
[15] = nfnB^+ overexpressing strain, 1 mM IPTG, anaerobic conditions
[16] = nfsA^+ overexpressing strain, 1 mM IPTG, anaerobic conditions
[17] = Escherichia coli, read-out: MIC

## CC(=O)OO [Peracetic acid]
[1]; logarithmic, stationary and biofilm cultures
  sterilization of cultures: all cultures were sterilized

## Nc1nc(F)nc2c1ncn2[C@@H]1O[C@H](CO)[C@@H](O)[C@@H]1O [Fludarabine]
[2]; Escherichia coli, deoD^− deletion strain
  MIC: > 500 µg/mL
[3]; Escherichia coli
  MIC: 125 µg/mL (≈ 438 µM)
[4]; [10]
  MIC: > 500 µg/mL
[5]; Escherichia coli
  MIC: 125 µg/mL (≈ 438 µM)

## NC(=O)c1cc([N+](=O)[O-])cc([N+](=O)[O-])c1 [3,5-Dinitrobenzamide]
[2]; [11]
  MIC: nfnB^− > 500 μg/ml
[2]; [12]
  MIC: nfsA^− > 500 μg/ml
[3]; [13]
  MIC: nfnB^+ 15.6 μg/ml
[3]; [14]
  MIC: nfsA^+ 7.8 μg/ml
[4]
  MIC: 250 µg/mL (≈ 1180 µM)
[5]; [15]
  MIC: nfnB^+ 15.6 μg/ml
[5]; [16]
  MIC: nfsA^+ 7.8 μg/ml

## CC[C@H]1OC(=O)[C@H](C)[C@@H](O[C@H]2C[C@@](C)(OC)[C@@H](O)[C@H](C)O2)[C@H](C)[C@@H](O[C@@H]2O[C@H](C)C[C@H](N(C)C)[C@H]2O)[C@](C)(O)C[C@@H](C)C(=O)[C@H](C)[C@@H](O)[C@]1(C)O [Erythromycin]
[3]; Escherichia coli
  MIC: 1.56 µg/mL (≈ 2.13 µM)
[3]; ΔtolC, codA^+ overexpressing strain
  MIC: codA^+ 1.56 μg/ml
[3]; ΔtolC, deoD^+ overexpressing strain
  MIC: deoD^+ 1.56 μg/ml
[3]; [13]
  MIC: nfnB^+ 1.56 μg/ml
[3]; [14]
  MIC: nfsA^+ 1.56 μg/ml
[4]; [10]
  MIC: 200 µg/mL (≈ 273 µM)
[5]; Escherichia coli
  MIC: 200 µg/mL (≈ 273 µM)
[5]; codA^+ overexpressing strain, 1 mM IPTG
  MIC: codA^+ 200 μg/ml
[5]; deoD^+ overexpressing strain, 1 mM IPTG
  MIC: deoD^+ 200 μg/ml
[5]; [16]
  MIC: nfsA^+ 200 μg/ml

## S=C(Nc1cccc(Cl)c1)Nc1cccc(Cl)c1 [PD18, thiourea, N,N′-bis(3-chlorophenyl)-(9CI)]
[6]
  screen outcome (prodrug hit / direct activity): prodrug hits
[7]; [17]
  MIC: 25 µg/mL (≈ 84.1 µM)

## benzoxazole, 2,3-dihydro-5-nitro-2-(5-nitro-2-thienyl)-(9CI)
[8]; NfnB+
  MIC: 3.1 µg/mL
[8]; NfsA+
  MIC: 6.3 µg/mL
[9]; NfnB−
  MIC: 25 µg/mL
[9]; NfsA−
  MIC: 25 µg/mL
[6]
  screen outcome (prodrug hit / direct activity): prodrug hit
[7]
  MIC: 12.5 µg/mL

## CC(=O)Nc1ncc([N+](=O)[O-])s1 [nitazole, Acetamide, N-(5-nitro-2-thiazolyl)-(8CI,9CI)]
[8]; Escherichia coli, NfnB+
  MIC: 1.6 µg/mL (≈ 8.55 µM)
[8]; Escherichia coli, NfsA+
  MIC: 6.3 µg/mL (≈ 33.7 µM)
[9]; Escherichia coli
  MIC: 25 µg/mL (≈ 134 µM)
[9]; NfsA−
  MIC: 25 µg/mL (≈ 134 µM)
[6]
  screen outcome (prodrug hit / direct activity): prodrug hits
[7]; [17]
  MIC: 12.5 µg/mL (≈ 66.8 µM)

## Nc1nc(O)ncc1F [5-fluorocytosine, 5-Fluorocytosine]
[2]; Escherichia coli, codA^− deletion strain
  MIC: > 2500 µg/mL
[3]; Escherichia coli
  MIC: 625 µg/mL (≈ 4840 µM)
[4]; [10]
  MIC: > 2500 µg/mL
[5]; Escherichia coli
  MIC: 625 µg/mL (≈ 4840 µM)

## CC1(C)S[C@@H]2[C@H](NC(=O)C(C(=O)O)c3ccccc3)C(=O)N2[C@H]1C(=O)O (stereo partly drawn) [carbenicillin]
[1]; biofilm
  killing of biofilm cells: resistant to killing
[1]; logarithmic cells
  concentration at which the majority of logarithmic cells were killed: 1.67 ×MIC
[1]; rapidly growing logarithmic culture, 600 μg/ml
  cells invulnerable to killing (persister subpopulation): 0.1%
[1]; stationary planktonic cells
  killing of stationary cells: little killing

## NC(=O)c1cc(N2CC2)c([N+](=O)[O-])cc1[N+](=O)[O-] [Dinitroaziridinylbenzamide (CB1954), Dinitroaziridinylbenzamide]
[2]; [11]
  MIC: nfnB^− > 200 μg/ml
[2]; [12]
  MIC: nfsA^− > 200 μg/ml
[3]; [13]
  MIC: nfnB^+ 3.3 μg/ml
[3]; [14]
  MIC: nfsA^+ 6.3 μg/ml
[4]
  MIC: >200 µg/mL
[5]; [15]
  MIC: nfnB^+ 3.3 μg/ml
[5]; [16]
  MIC: nfsA^+ 6.3 μg/ml
